Measured values as given in publication PMC11213733, “Computational approaches identify a transcriptomic fingerprint of drug-induced structural cardiotoxicity” (Cell Biology and Toxicology, 2024).
Counter-ions that a name gives are not always drawn. Like-named read-outs stand apart in the source and are kept apart here.

What was measured:
[1] = system: cardiac microtissues; assay: Ingenuity Pathway Analysis over-representation of differentially expressed genes (activation Z-score); assay type: cell-based, human; details: 48hr high; Group 2
[2] = system: cardiac microtissues; assay: Transcriptomic profiling (mRNA-seq) and DESeq2 differential gene expression analysis in cardiac microtissues; details: for number of significant differentially expressed genes, 6hr high / number of significant differentially expressed genes, 6hr low / number of significant differentially expressed genes, 48hr high / number of significant differentially expressed genes, 48hr low / number of significant differentially expressed genes, 72hr high / number of significant differentially expressed genes, 72hr low: absolute log2(Fold-Change) > 1, FDR p ≤ 0.05; for number of significant differentially expressed genes, 6hr high / number of significant differentially expressed genes, 48hr high / number of significant differentially expressed genes, 72hr high: high concentration; for number of significant differentially expressed genes, 6hr low / number of significant differentially expressed genes, 48hr low / number of significant differentially expressed genes, 72hr low: low concentration
[3] = system: cardiac microtissues; assay: Targeted qRT-PCR of ATAD3C, CDH13, IL6, PTX3, SLC7A5, UCHL1 in cardiac microtissues; assay type: cell-based, human; details: Sorafenib 3.74 µM, Sunitinib 3.53 µM, Dasatinib 10.8 µM; for activity at 10.8 µM: Homo sapiens, read-out: % of control
Experimental: The experiment was performed with three technical replicates across 1-2 independent replicates.

[4] = ref FDA label, cited from earlier work; for Structural cardiotoxin?: FDA label references heart failure or a decrease in left ventricular ejection fraction; for Functional cardiotoxin?: compound annotation
[5] = system: cardiac microtissues; assay: ATP depletion (CellTiter Glo Luminescent Cell Viability Assay) in cardiac microtissues; assay type: cell-based, human; details: the concentration is the IC30 of ATP depletion, or cell death caused
Experimental: Cellular ATP concentrations were also assessed using the CellTiter Glo® Luminescent Cell Viability Assay as per the manufacturer’s instructions (Promega).

SMILES: Cc1nc(Nc2ncc(C(=O)Nc3c(C)cccc3Cl)s2)cc(N2CCN(CCO)CC2)n1 [Dasatinib]
- activation Z-score: Actin Cytoskeleton Signaling [1]: -2.887
- activation Z-score: Actin Nucleation by ARP-WASP Complex [1]: -2.449
- activation Z-score: Acute Phase Response Signaling [1]: -2.828
- activation Z-score: Adrenomedullin signaling pathway [1]: -0.535
- activation Z-score: Apelin Cardiac Fibroblast Signaling Pathway [1]: 2.449
- activation Z-score: Apelin Liver Signaling Pathway [1]: -2.449
- activation Z-score: Aryl Hydrocarbon Receptor Signaling [1]: -2.333
- activation Z-score: Breast Cancer Regulation by Stathmin1 [1]: -3.363
- activation Z-score: CLEAR Signaling Pathway [1]: 2.5
- activation Z-score: Cardiac Hypertrophy Signaling (Enhanced) [1]: -3.889
- activation Z-score: Colorectal Cancer Metastasis Signaling [1]: -3.5
- activation Z-score: Cyclins and Cell Cycle Regulation [1]: 1
- activation Z-score: ERK5 Signaling [1]: -2.646
- activation Z-score: Endothelin-1 Signaling [1]: -1.604
- activation Z-score: G-Protein Coupled Receptor Signaling [1]: -1.571
- activation Z-score: GP6 Signaling Pathway [1]: -3.742
- activation Z-score: Glioblastoma Multiforme Signaling [1]: -2.111
- activation Z-score: HGF Signaling [1]: -1.89
- activation Z-score: HIF1Î± Signaling [1]: -2.673
- activation Z-score: HMGB1 Signaling [1]: -3.3
- activation Z-score: Hepatic Fibrosis Signaling Pathway [1]: -6.008
- activation Z-score: IL-6 Signaling [1]: -3.3
- activation Z-score: IL-8 Signaling [1]: -2.84
- activation Z-score: IL-13 Signaling Pathway [1]: -1.897
- activation Z-score: IL-15 Production [1]: -1.897
- activation Z-score: ILK Signaling [1]: -3.207
- activation Z-score: Immunogenic Cell Death Signaling Pathway [1]: -2.828
- activation Z-score: Integrin Signaling [1]: -3.357
- activation Z-score: Intrinsic Prothrombin Activation Pathway [1]: -2.236
- activation Z-score: LXR/RXR Activation [1]: 3.3
- activation Z-score: Leukocyte Extravasation Signaling [1]: -1.698
- activation Z-score: MIF Regulation of Innate Immunity [1]: -1.633
- activation Z-score: MYC Mediated Apoptosis Signaling [1]: -2.449
- activation Z-score: Macrophage Alternative Activation Signaling Pathway [1]: -0.728
- activation Z-score: Oncostatin M Signaling [1]: -1.342
- activation Z-score: Osteoarthritis Pathway [1]: -2.985
- activation Z-score: Oxytocin Signaling Pathway [1]: -2.4
- activation Z-score: PAK Signaling [1]: -2.449
- activation Z-score: PPAR Signaling [1]: 3.742
- activation Z-score: Production of Nitric Oxide and Reactive Oxygen Species in Macrophages [1]: -2.646
- activation Z-score: Prostanoid Biosynthesis [1]: -1
- activation Z-score: Pulmonary Fibrosis Idiopathic Signaling Pathway [1]: -5.947
- activation Z-score: Pulmonary Healing Signaling Pathway [1]: -2.668
- activation Z-score: RAC Signaling [1]: -2.449
- activation Z-score: RHOGDI Signaling [1]: 2.309
- activation Z-score: Regulation Of The Epithelial Mesenchymal Transition By Growth Factors Pathway [1]: -3.962
- activation Z-score: Regulation of Cellular Mechanics by Calpain Protease [1]: -2
- activation Z-score: Regulation of eIF4 and p70S6K Signaling [1]: -2
- activation Z-score: Renin-Angiotensin Signaling [1]: -2
- activation Z-score: Ribonucleotide Reductase Signaling Pathway [1]: -2.496
- activation Z-score: Role of IL-17F in Allergic Inflammatory Airway Diseases [1]: -2
- activation Z-score: Role of JAK family kinases in IL-6-type Cytokine Signaling [1]: -2.673
- activation Z-score: Role of NFAT in Cardiac Hypertrophy [1]: -2.496
- activation Z-score: STAT3 Pathway [1]: -2.496
- activation Z-score: Senescence Pathway [1]: -2
- activation Z-score: Signaling by Rho Family GTPases [1]: -3.357
- activation Z-score: Superpathway of Cholesterol Biosynthesis [1]: 2
- activation Z-score: TREM1 Signaling [1]: -2.714
- activation Z-score: Type II Diabetes Mellitus Signaling [1]: -2
- activation Z-score: White Adipose Tissue Browning Pathway [1]: -2.111
- activation Z-score: Wound Healing Signaling Pathway [1]: -5
- number of significant differentially expressed genes, 6hr high [2]: 108
- number of significant differentially expressed genes, 6hr low [2]: 48
- number of significant differentially expressed genes, 48hr high [2]: 820
- number of significant differentially expressed genes, 48hr low [2]: 637
- number of significant differentially expressed genes, 72hr high [2]: 814
- number of significant differentially expressed genes, 72hr low [2]: 616
- activity at 10.8 µM ([3]; gene ATAD3C, Run 1): 75.7%
- activity at 10.8 µM ([3]; gene CDH13, Run 1): 46.8%
- activity at 10.8 µM ([3]; gene CDH13, Run 2): 19.7%
- activity at 10.8 µM ([3]; gene IL6, Run 1): 10.1%
- activity at 10.8 µM ([3]; gene PTX3, Run 1): 18.7%
- activity at 10.8 µM ([3]; gene PTX3, Run 2): 4.94%
- activity at 10.8 µM ([3]; gene SLC7A5, Run 1): 52.1%
- activity at 10.8 µM ([3]; gene SLC7A5, Run 2): 26%
- activity at 10.8 µM ([3]; gene UCHL1, Run 1): 42.1%
- activity at 10.8 µM ([3]; gene UCHL1, Run 2): 21.3%
- 2^-ΔΔCt of Individual reps, Treated 1 ([3]; gene ATAD3C, Run 1): 0.8222
- 2^-ΔΔCt of Individual reps, Treated 2 ([3]; gene ATAD3C, Run 1): 0.6233
- 2^-ΔΔCt of Individual reps, Treated 3 ([3]; gene ATAD3C, Run 1): 0.828
- Average 2^-ΔΔCt, Treated ([3]; gene ATAD3C, Run 1): 0.7578
- 2^-ΔΔCt of Individual reps, Treated 1 ([3]; gene CDH13, Run 1): 0.4709
- 2^-ΔΔCt of Individual reps, Treated 2 ([3]; gene CDH13, Run 1): 0.4361
- 2^-ΔΔCt of Individual reps, Treated 3 ([3]; gene CDH13, Run 1): 0.5098
- Average 2^-ΔΔCt, Treated ([3]; gene CDH13, Run 1): 0.4723
- 2^-ΔΔCt of Individual reps, Treated 1 ([3]; gene CDH13, Run 2): 0.2109
- 2^-ΔΔCt of Individual reps, Treated 2 ([3]; gene CDH13, Run 2): 0.2308
- 2^-ΔΔCt of Individual reps, Treated 3 ([3]; gene CDH13, Run 2): 0.1575
- Average 2^-ΔΔCt, Treated ([3]; gene CDH13, Run 2): 0.1997
- 2^-ΔΔCt of Individual reps, Treated 1 ([3]; gene IL6, Run 1): 0.1388
- 2^-ΔΔCt of Individual reps, Treated 2 ([3]; gene IL6, Run 1): 0.1078
- 2^-ΔΔCt of Individual reps, Treated 3 ([3]; gene IL6, Run 1): 0.05876
- Average 2^-ΔΔCt, Treated ([3]; gene IL6, Run 1): 0.1018
- 2^-ΔΔCt of Individual reps, Treated 1 ([3]; gene PTX3, Run 1): 0.2236
- 2^-ΔΔCt of Individual reps, Treated 2 ([3]; gene PTX3, Run 1): 0.2024
- 2^-ΔΔCt of Individual reps, Treated 3 ([3]; gene PTX3, Run 1): 0.143
- Average 2^-ΔΔCt, Treated ([3]; gene PTX3, Run 1): 0.1897
- 2^-ΔΔCt of Individual reps, Treated 1 ([3]; gene PTX3, Run 2): 0.06731
- 2^-ΔΔCt of Individual reps, Treated 2 ([3]; gene PTX3, Run 2): 0.04708
- 2^-ΔΔCt of Individual reps, Treated 3 ([3]; gene PTX3, Run 2): 0.03383
- Average 2^-ΔΔCt, Treated ([3]; gene PTX3, Run 2): 0.04941
- 2^-ΔΔCt of Individual reps, Treated 1 ([3]; gene SLC7A5, Run 1): 0.5311
- 2^-ΔΔCt of Individual reps, Treated 2 ([3]; gene SLC7A5, Run 1): 0.5414
- 2^-ΔΔCt of Individual reps, Treated 3 ([3]; gene SLC7A5, Run 1): 0.5079
- Average 2^-ΔΔCt, Treated ([3]; gene SLC7A5, Run 1): 0.5268
- 2^-ΔΔCt of Individual reps, Treated 1 ([3]; gene SLC7A5, Run 2): 0.3467
- 2^-ΔΔCt of Individual reps, Treated 2 ([3]; gene SLC7A5, Run 2): 0.2554
- 2^-ΔΔCt of Individual reps, Treated 3 ([3]; gene SLC7A5, Run 2): 0.2489
- Average 2^-ΔΔCt, Treated ([3]; gene SLC7A5, Run 2): 0.2837
- 2^-ΔΔCt of Individual reps, Treated 1 ([3]; gene UCHL1, Run 1): 0.4041
- 2^-ΔΔCt of Individual reps, Treated 2 ([3]; gene UCHL1, Run 1): 0.4271
- 2^-ΔΔCt of Individual reps, Treated 3 ([3]; gene UCHL1, Run 1): 0.4398
- Average 2^-ΔΔCt, Treated ([3]; gene UCHL1, Run 1): 0.4237
- 2^-ΔΔCt of Individual reps, Treated 1 ([3]; gene UCHL1, Run 2): 0.202
- 2^-ΔΔCt of Individual reps, Treated 2 ([3]; gene UCHL1, Run 2): 0.2889
- 2^-ΔΔCt of Individual reps, Treated 3 ([3]; gene UCHL1, Run 2): 0.1891
- Average 2^-ΔΔCt, Treated ([3]; gene UCHL1, Run 2): 0.2267
- Structural cardiotoxin? [4]: Y
- Functional cardiotoxin? [4]: Y

SMILES: COc1cccc2c1C(=O)c1c(O)c3c(c(O)c1C2=O)C[C@@](O)(C(=O)CO)C[C@@H]3O[C@H]1C[C@H](N)[C@H](O)[C@H](C)O1 [Doxorubicin HCl]
- Transcriptomic high concentration (µM) = IC30 of ATP depletion [5]: 0.36 µM
- number of significant differentially expressed genes, 6hr high [2]: 17
- number of significant differentially expressed genes, 6hr low [2]: 26
- number of significant differentially expressed genes, 48hr high [2]: 5
- number of significant differentially expressed genes, 48hr low [2]: 5
- number of significant differentially expressed genes, 72hr high [2]: 4
- number of significant differentially expressed genes, 72hr low [2]: 5
- impact on gene expression profiles ([2]; cardiac microtissues, all treatments): low impact on gene expression profiles
- Structural cardiotoxin? [4]: Y
- Functional cardiotoxin? [4]: Y
